19 compounds from patent US11679108B2, “Aromatic heterocyclic compound, and pharmaceutical composition and use thereof” (GUANGZHOU HENOVCOM BIOSCIENCE CO., LTD., priority 2018, dated 2023) can be followed below.

One experiment addresses T1, ATX in human plasma (Homo sapiens, UniProt Q13822).
T1 construct: blank plasma was derived from at least 6 individual people; from tissue; host or cells: human plasma (pooled from at least 6 individuals)
The experiment can be described thus: Analysis in vitro: detection of LPA in human plasma for screening activity (LPA 18:2 by LC/MS/MS). Type of experiment: biochemical. The settings on record: incubated 2 hours at 37° C., LPA 18:2 detected by LC/MS/MS. The text has this:
Analysis In Vitro: Detection of LPA in Human Plasma for Screening Activity
Principle: LPC in plasma being used as a substrate, the produced LPA 18:2 (LPA 17:0 as an internal standard) is detected by LC/MS/MS quantitative analysis. At different concentrations of the compounds to be tested, the percentage of residual activity is obtained by the ratio of the production of LPA18:2 to that in the absence of the compounds to be tested, thereby calculating IC50 values.
Experiment procedures: blank plasma was derived from at least 6 individual people. The compounds to be tested were diluted from stock solution in 3-fold dilution gradient, to produce 8 concentrations of working solution (with zero) in series. 10 μL of the melting blank plasma samples were taken and iced methanol solution containing internal standard (LPA 17:0) was added to it, so that the mixture directedly performed protein precipitation, which served as a system control sample. 2 μL of the working solution in different concentration was taken and 198 μL of blank human plasma was added, which was incubated with a concentration of 0 to 10 μM. The samples were placed at an incubater containing 5% CO2 at 37° C., and incubated for 2 hours. When the incubation was completed, 10 μL of plasma sample was taken and appropriate volume of iced methanol solution containing internal standard (LPA 17:0) was added into it, so that the mixture directedly performed protein precipitation. The precipitation was centrifuged to take supernatant. LPA 18:2 was detected by LC/MS/MS and IC50 values were analyzed and calculated by software, seeing Table 2.

A further experiment deals with ATX (Homo sapiens, UniProt Q13822). The experiment can be described thus: Analysis in vitro: LPC was used as substrate for screening enzyme activity (Amplex Red fluorescence). The format is biochemical. The settings on record: inhibitory activity against ATX, with LPC as substrate. From the text:
Analysis In Vitro: LPC was Used as Substrate for Screening Enzyme Activity
Principle: Lysophosphatidylcholine (LPC) as substrate is hydrolyzed by using the activity of lysoPLD enzyme, to produce lysophosphatidic acid (LPA) and choline, which is oxidized to produce H2O2 under the action of choline oxidase. In presence of horse radish peroxidase (HPR), Amplex Red reagent is reacted with H2O2 in a quantitative chemistry ratio of 1 to 1, to produce strong fluorescence products, which are detected by a fluorescent quantitative test.
Experimental procedures: the compounds to be tested were dissolved in DMSO, to prepare 10 mM of stock solution, which was diluted in a gradient concentration of 3 times with DMSO from 10 mM, to generate 10 concentration gradients. The reaction buffer solution was used for preparing a mixed solution 1 of 2 ng/μl ATX, 2 U/ml HRP and 0.2 U/ml choline oxidase in a final concentration. 20 μl of the above mixed solution 1 was added to each hole of an experiment board, […]. The compounds diluted with DMSO were transferred into an experiment board with Echo550. The reaction buffer solution was used for preparing a mixed solution 2 of […] LPC and 400 μM Amplex Red in a final concentration. 20 μl of the above mixed solution 2 was added to each hole of the experiment board. After addition, the experiment board was shook for 30 seconds on a shaker, and incubated for 30 minutes. Envision was used to read the fluorescence signals with an exciting light at 530 nm and emitted light at 590 nm. Inhibition ratio of the compounds to enzyme reaction was calculated according to the ratio of fluorescence, and IC50 of the compounds was analyzed and calculated by software, seeing Table 1.

Broadly, the IC50 is the midpoint of a concentration-inhibition curve. Lower therefore signals greater potency in that assay. Consider `CCc1nc2sc(N3CCN(CC(=O)N4CC(O)C4)CC3)nn2c1N(C)c1nc(-c2ccc(F)cc2)c(C#N)s1` [Example 2, 2-{[6-ethyl-2-(4-(2-(3-hydroxyazetidin-1-yl)-2-oxoethyl)piperazin-1-yl)imidazo[2,1-b][1,3,4]thiadiazol-5-yl](methyl)amino}-4-(4-fluorophenyl)thiazole-5-carbonitrile], for which the IC50 on ATX in human plasma and at ATX was 100 to 500 nM each time.
With `CCc1nc2sc(N3CCC4(CC3)CN(CC(=O)N3CC(O)C3)C4)nn2c1N(C)c1nc(-c2ccc(F)cc2)c(C#N)s1` [Example 4], the IC50 against ATX in human plasma fell in the range of 0.01 to 100 nM; against ATX, 100 to 500 nM.
As to `CCc1nc2sc(N3CC4CCN(CC(=O)N5CC(O)C5)C4C3)nn2c1N(C)c1nc(-c2ccc(F)cc2)c(C#N)s1` (stereo not drawn) [Example 62, 2-{[6-ethyl-2-(1-(2-(3-hydroxyazetidin-1-yl)-2-oxoethyl)hexahydropyrrolo[3,4-b]pyrrol-5(1H)-yl)imidazo[2,1-b][1,3,4]thiadiazol-5-yl](methyl)amino}-4-(4-fluorophenyl)thiazole-5-carbonitrile], the IC50 at ATX in human plasma fell in the range of 100 to 500 nM.
`CCc1nc2sc(N3CC(N(C)CC(=O)N4CC(O)C4)C3)nn2c1N(C)c1nc(-c2ccc(F)cc2)c(C#N)s1` [Example 63] displayed an IC50 against ATX in human plasma of 0.01 to 100 nM.
Take `CCc1nc2sc(N3CCC(NC(=O)N4CC(O)C4)C3)nn2c1N(C)c1nc(-c2ccc(F)cc2)c(C#N)s1` (stereo not drawn) [Example 64, N-{1-[5-((5-cyano-4-(4-fluorophenyl)thiazol-2-yl)(methyl)amino)-6-ethylimidazo[2,1-b][1,3,4]thiadiazol-2-yl]pyrrolidin-3-yl}-3-hydroxyazadetin-1-carboxamide]: the half-inhibitory concentration (IC50) on ATX in human plasma lay in the range of 0.01 to 100 nM.
Still for that read-out and setting: then `CCc1nc2sc(N3CCN(CC(=O)N4CC(O)C4)C(C)(C)C3)nn2c1N(C)c1nc(-c2ccc(F)cc2)c(C#N)s1` [Example 65, 2-{[6-ethyl-2-(4-(2-(3-hydroxyazetidin-1-yl)-2-oxoethyl)-3,3-dimethylpiperazin-1-yl)imidazo[2,1-b][1,3,4]thiadiazol-5-yl](methyl)amino}-4-(4-fluorophenyl)thiazole-5-carbonitrile], with 0.01 to 100 nM.
At ATX in human plasma, `CCc1nc2sc(N3CCN(CC(=O)N4CC(O)C4)C[C@H]3C)nn2c1N(C)c1nc(-c2ccc(F)cc2)c(C#N)s1` [Example 66, (R)-2-{[6-ethyl-2-(4-(2-(3-hydroxyazetidin-1-yl)-2-oxoethyl)-2-methylpiperazin-1-yl)imidazo[2,1-b][1,3,4]thiadiazol-5-yl](methyl)amino}-4-(4-fluorophenyl)thiazole-5-carbonitrile] displayed a concentration for half-maximal inhibition (IC50) of 0.01 to 100 nM.
Still for that read-out and setting: then `CCc1nc2sc(N3CCN(CC(=O)N4CC(O)C4)C[C@@H]3C)nn2c1N(C)c1nc(-c2ccc(F)cc2)c(C#N)s1` [Example 67, (S)-2-{[6-ethyl-2-(4-(2-(3-hydroxyazetidin-1-yl)-2-oxoethyl)-2-methylpiperazin-1-yl)imidazo[2,1-b][1,3,4]thiadiazol-5-yl](methyl)amino}-4-(4-fluorophenyl)thiazole-5-carbonitrile], with 0.01 to 100 nM; and `CCc1nc2sc(N3CCN(CC(=O)N4CC(O)C4)[C@@H](C)C3)nn2c1N(C)c1nc(-c2ccc(F)cc2)c(C#N)s1` [Example 68, (S)-2-{[6-ethyl-2-(4-(2-(3-hydroxyazetidin-1-yl)-2-oxoethyl)-3-methylpiperazin-1-yl)imidazo[2,1-b][1,3,4]thiadiazol-5-yl](methyl)amino}-4-(4-fluorophenyl)thiazole-5-carbonitrile], with 0.01 to 100 nM; and `CCc1nc2sc(N3CCN(CC(=O)N4CC(O)C4)[C@H](C)C3)nn2c1N(C)c1nc(-c2ccc(F)cc2)c(C#N)s1` [Example 69, (R)-2-{[6-ethyl-2-(4-(2-(3-hydroxyazetidin-1-yl)-2-oxoethyl)-3-methylpiperazin-1-yl)imidazo[2,1-b][1,3,4]thiadiazol-5-yl](methyl)amino}-4-(4-fluorophenyl)thiazole-5-carbonitrile], with 100 to 500 nM.
Same read-out and setting: the figure for `CCc1nc2sc(N3CC4CCC(C3)N4CC(=O)N3CC(O)C3)nn2c1N(C)c1nc(-c2ccc(F)cc2)c(C#N)s1` [Example 70, 2-{[6-ethyl-2-(8-(2-(3-hydroxyazetidin-1-yl)-2-oxoethyl)-3,8-diazabicyclo[3.2.1]octan-3-yl)imidazo[2,1-b][1,3,4]thiadiazol-5-yl](methyl)amino}-4-(4-fluorophenyl)thiazole-5-carbonitrile] is 100 to 500 nM.
Still for that read-out and setting: then `CCc1nc2sc(N3CCN(CC(=O)N4CC(O)C4)C4(CC4)C3)nn2c1N(C)c1nc(-c2ccc(F)cc2)c(C#N)s1` [Example 71, 2-{[6-ethyl-2-(4-(2-(3-hydroxyazetidin-1-yl)-2-oxoethyl)-4,7-diazaspiro[2.5]octan-7-yl)imidazo[2,1-b][1,3,4]thiadiazol-5-yl](methyl)amino}-4-(4-fluorophenyl)thiazole-5-carbonitrile], with 100 to 500 nM; and `CCc1nc2sc(N3C[C@@H](C)N(CC(=O)N4CC(O)C4)[C@@H](C)C3)nn2c1N(C)c1nc(-c2ccc(F)cc2)c(C#N)s1` [Example 72, cis-2-{[6-ethyl-2-(4-(2-(3-hydroxyazetidin-1-yl)-2-oxoethyl)-3,5-dimethylpiperazin-1-yl)imidazo[2,1-b][1,3,4]thiadiazol-5-yl](methyl)amino}-4-(4-fluorophenyl)thiazole-5-carbonitrile], with 100 to 500 nM; and `CCc1nc2sc(N3C[C@H](C)N(CC(=O)N4CC(O)C4)C[C@@H]3C)nn2c1N(C)c1nc(-c2ccc(F)cc2)c(C#N)s1` [Example 74, 2-{[6-ethyl-2-((2S,5S)-4-(2-(3-hydroxyazetidin-1-yl)-2-oxoethyl)-2,5-dimethylpiperazin-1-yl)imidazo[2,1-b][1,3,4]thiadiazol-5-yl](methyl)amino}-4-(4-fluorophenyl)thiazole-5-carbonitrile], with 0.01 to 100 nM.
Turning to `CCc1nc2sc(N3C[C@@H](C)N(CC(=O)N4CC(O)C4)C[C@H]3C)nn2c1N(C)c1nc(-c2ccc(F)cc2)c(C#N)s1` [Example 75, 2-{[6-ethyl-2-((2R,5R)-4-(2-(3-hydroxyazetidin-1-yl)-2-oxoethyl)-2,5-dimethylpiperazin-1-yl)imidazo[2,1-b][1,3,4]thiadiazol-5-yl](methyl)amino}-4-(4-fluorophenyl)thiazole-5-carbonitrile], the IC50 at ATX in human plasma lay within 100 to 500 nM.
The compound `CCc1nc2sc(N3CCN(CC(=O)N4CC(O)C4)C(C)C3C)nn2c1N(C)c1nc(-c2ccc(F)cc2)c(C#N)s1` (stereo not drawn) [Example 77, 2-{[6-ethyl-2-(4-(2-(3-hydroxyazetidin-1-yl)-2-oxoethyl)-2,3-dimethylpiperazin-1-yl)imidazo[2,1-b][1,3,4]thiadiazol-5-yl](methyl)amino}-4-(4-fluorophenyl)thiazole-5-carbonitrile] registered an IC50 against ATX in human plasma of 0.01 to 100 nM.
On the same count and under the same terms, the figure for `CCc1nc2sc(N3CC[C@@H](N(C)C(C)C(=O)N4CC(O)C4)C3)nn2c1N(C)c1nc(-c2ccc(F)cc2)c(C#N)s1` (stereo partly drawn) [Example 78, 2-{[6-ethyl-2-((3R)-3-((1-(3-hydroxyazetidin-1-yl)-1-oxopropan-2-yl)(methyl)amino)pyrrolidin-1-yl)imidazo[2,1-b][1,3,4]thiadiazol-5-yl](methyl)amino}-4-(4-fluorophenyl)thiazol-5-carbonitrile] is 0.01 to 100 nM; for `CCc1nc2sc(N3CCC(C(=O)N4CC(O)C4)CC3)nn2c1N(C)c1nc(-c2ccc(F)cc2)c(C#N)s1` [Example 79, 2-{[6-ethyl-2-(4-(3-hydroxyazetidin-1-carbonyl)piperidin-1-yl)imidazo[2,1-b][1,3,4]thiadiazol-5-yl](methyl)amino}-4-(4-fluorophenyl)thiazole-5-carbonitrile] it is 100 to 500 nM; for `CCc1nc2sc(N3CC[C@@H](NCC(=O)N4CC(O)C4)C3)nn2c1N(C)c1nc(-c2ccc(F)cc2)c(C#N)s1` [Example 80, (R)-2-{[6-ethyl-2-(3-((2-(3-hydroxyazetidin-1-yl)-2-oxoethyl)amino)pyrrolidin-1-yl)imidazo[2,1-b][1,3,4]thiadiazol-5-yl](methyl)amino}-4-(4-fluorophenyl)thiazol-5-carbonitrile] it is 0.01 to 100 nM.
